What was measured:
[1] = target: T1, SIRT1 binding to prelamin A (Mus musculus, UniProt Q923E4); assay: Prelamin A pull-down by anti-SIRT1 immunoprecipitates in BMSCs; assay type: cell-based; conditions: resveratrol 2 μM
T1 construct: endogenous in cells; host or cells: mouse bone marrow stromal cells (Zmpste24-/-)
T1 sequence (Q923E4 2-737 limits assumed): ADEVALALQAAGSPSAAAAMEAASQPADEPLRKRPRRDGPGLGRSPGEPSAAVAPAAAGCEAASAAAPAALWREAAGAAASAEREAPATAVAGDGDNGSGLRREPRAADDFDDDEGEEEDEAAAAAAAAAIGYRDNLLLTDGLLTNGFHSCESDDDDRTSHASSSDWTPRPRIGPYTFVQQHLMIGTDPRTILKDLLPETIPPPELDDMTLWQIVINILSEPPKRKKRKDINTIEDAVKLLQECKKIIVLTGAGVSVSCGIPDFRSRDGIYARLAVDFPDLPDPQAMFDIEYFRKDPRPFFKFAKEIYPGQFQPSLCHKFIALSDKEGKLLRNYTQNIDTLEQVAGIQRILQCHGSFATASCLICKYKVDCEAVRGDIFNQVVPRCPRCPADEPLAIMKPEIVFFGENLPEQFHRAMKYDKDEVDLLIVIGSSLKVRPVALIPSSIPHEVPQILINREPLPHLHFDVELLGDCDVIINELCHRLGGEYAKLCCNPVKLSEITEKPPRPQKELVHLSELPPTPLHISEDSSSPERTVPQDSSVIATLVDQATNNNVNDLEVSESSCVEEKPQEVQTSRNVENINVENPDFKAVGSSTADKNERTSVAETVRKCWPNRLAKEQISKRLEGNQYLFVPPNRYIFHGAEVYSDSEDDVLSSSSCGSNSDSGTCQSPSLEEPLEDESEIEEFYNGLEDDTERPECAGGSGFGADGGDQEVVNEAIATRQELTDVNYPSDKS
T1 sequence (P48678 1-662 partner limits assumed): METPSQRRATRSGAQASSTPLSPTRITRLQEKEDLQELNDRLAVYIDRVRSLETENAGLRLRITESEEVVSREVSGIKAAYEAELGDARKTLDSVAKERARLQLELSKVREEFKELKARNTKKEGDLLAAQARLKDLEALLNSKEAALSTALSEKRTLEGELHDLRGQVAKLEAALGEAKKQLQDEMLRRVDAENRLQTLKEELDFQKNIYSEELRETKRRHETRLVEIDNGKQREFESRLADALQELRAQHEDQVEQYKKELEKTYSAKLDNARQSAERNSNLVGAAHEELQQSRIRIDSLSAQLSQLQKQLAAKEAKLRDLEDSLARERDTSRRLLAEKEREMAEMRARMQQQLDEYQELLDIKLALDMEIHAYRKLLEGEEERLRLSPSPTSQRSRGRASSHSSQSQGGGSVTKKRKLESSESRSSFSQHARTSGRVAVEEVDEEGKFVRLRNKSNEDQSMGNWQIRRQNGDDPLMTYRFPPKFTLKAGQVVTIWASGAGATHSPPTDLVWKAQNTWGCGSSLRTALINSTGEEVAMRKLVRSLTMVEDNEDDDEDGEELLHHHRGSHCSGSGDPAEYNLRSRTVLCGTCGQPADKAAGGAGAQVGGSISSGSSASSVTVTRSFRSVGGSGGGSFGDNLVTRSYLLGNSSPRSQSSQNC
Experimental: (FIG. 4A) Resveratrol (10 μM) increased colony-forming capacity of Zmpste24^−/− BMSCs. Colony-forming assay was performed on freshly isolated bone marrow cells in 10 cm dishes in the presence and absence of resveratrol. (FIG. 4B) Colony number counting. […] Data represent mean±SEM, n=4. *P<0.05, RSV Vs Vehicle. (FIG. 4C) Left, level of prelamin A pull down by anti SIRT1 immunoprecipitates in BMSCs treated or untreated with resveratrol (2 μM) was determined by Immunoblotting; right, level of acetylated Foxo3a in resveratrol was assessed by Immunoblotting. (FIG. 4D) Levels of catalase and Gadd45α in SIRT1 or scramble siRNA treated Zmpste24^−/− BMSCs in the presence or absence of resveratrol (10 μM) determined by Western blotting. (FIG. 4E) Colony-forming capacity of Zmpste24^−/− BMSCs by SIRT1 or scramble knocking down in the presence or absence of resveratrol. […] Colony forming assay was done on freshly isolated cells in 6-well plates. (FIG. 4F) Quantification of (FIG. 4E). […] (FIG. 4gG Levels of H3K9ac and IR-induced-H2AX with or without ectopic SIRT1 in wild-type and Zmpste24 null BMSCs were assessed by Western blotting. (FIG. 4H) Ectopic SIRT1 increased the colony-forming capacity of Zmpste24^−/− and wild-type BMSCs. Colony-forming assay was performed on freshly isolated cells in 6 cm dishes. (FIG. 4I) Quantification of (FIG. 4H). Data represent mean±SEM, n=5. *P<0.05, SIRT1 Vs Mock. […]

Zmpste24−/− mice = assay: Survival and body weight of Zmpste24−/− mice treated via drinking water; assay type: in vivo, mouse; conditions: resveratrol 20 μg/ml in drinking water
Experimental: Zmpste24^−/− mice have been described previously (Pendas et al., 2002). Mouse experimentation was performed in accordance with the guidelines of the Committee on the Use of Live Animals in Teaching and Research (CULATR) at the University of Hong Kong. New-born Zmpste24^−/− mice and wild-type controls were fed with resveratrol (20 μg/ml) or N-acetyl Cysteine (1 mg/ml) in drinking water. The survival of resveratrol-treated, NAC-treated, or vehicle-treated Zmpste24^−/− mice was recorded and their body weight was monitored weekly. The trabecular bone organization and bone mineral density were determined by micro-CT. The survival rate was analyzed by Kaplan-Meier method and statistical comparison was performed by Log-rank (Mantel-Cox) Test.
Briefly, resveratrol was supplemented at a concentration of 20 μg/ml in drinking water. Four months after treatment, BMSCs were collected for examination and comparison between resveratrol-treated and vehicle-treated Zmpste24^−/− mice.

Oc1ccc(C=Cc2cc(O)cc(O)c2)cc1 [resveratrol]
binding of SIRT1 to prelamin A [1]: increased the binding of SIRT1 to prelamin A | animals still alive (Zmpste24−/− mice; by 26 weeks after birth): ~60% | body weight loss (Zmpste24−/− mice; compared to vehicle-treated controls): significantly slowed down | median survival (Zmpste24−/− mice; vehicle 20 weeks): 27 weeks | maximum lifespan (mean lifespan of the longest-lived 10% of the animals) (Zmpste24−/− mice; vehicle 27.5 weeks): 33.5 weeks

From patent US10086039B2, “Lamin A, an activator of longevity/anti-aging SIRT1 protein” (THE UNIVERSITY OF HONG KONG, priority 2012, dated 2018)
